Laboratory results: ChEMBL document CHEMBL1201862, “PubChem BioAssay data set” (2004)
Activity calls are given as the source filed them.

Key:
[1] = target: T1, Neuropeptide Y receptor type 1 (Homo sapiens, UniProt P25929); assay: Fluorescence-based dose response cell-based high-throughput screening assay for agonists of NPY-Y1. [Related pubchem assays: 1697 (Screening assay (NPY-Y1 agonists).), 1359 (Screening assay (NPY-Y2 potentiators or agonists).), 1304 (Screening assay (NPY-Y1 potentiators or agonists).), 1704 (Screening assay (CNGC inhibitors).), 1791 (Summary AID.)]; assay type: functional
T1 sequence (P25929 whole entry): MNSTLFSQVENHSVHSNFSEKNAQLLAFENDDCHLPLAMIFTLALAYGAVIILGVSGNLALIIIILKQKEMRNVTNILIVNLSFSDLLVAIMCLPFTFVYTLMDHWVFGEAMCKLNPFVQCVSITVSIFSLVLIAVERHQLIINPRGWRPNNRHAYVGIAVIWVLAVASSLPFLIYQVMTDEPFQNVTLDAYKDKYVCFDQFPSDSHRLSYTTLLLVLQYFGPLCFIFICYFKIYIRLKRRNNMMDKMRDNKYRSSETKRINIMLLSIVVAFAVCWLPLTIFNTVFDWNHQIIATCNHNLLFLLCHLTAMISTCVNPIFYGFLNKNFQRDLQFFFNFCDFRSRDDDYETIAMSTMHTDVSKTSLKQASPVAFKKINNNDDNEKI

[2] = target: T2, Endoribonuclease toxin MazF (Escherichia coli K-12, UniProt P0AE70); assay: SAR analysis of small molecule activators of the MazEF TA System via a fluorescence-based single-stranded RNase assay counterscreen. [Related pubchem assays (depositor defined):AID504720, AID504743]; assay type: functional
T2 sequence (P0AE70 whole entry): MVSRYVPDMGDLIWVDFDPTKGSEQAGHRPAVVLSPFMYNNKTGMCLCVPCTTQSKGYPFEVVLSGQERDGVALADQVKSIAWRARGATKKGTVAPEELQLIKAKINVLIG

[3] = target: T2, Endoribonuclease toxin MazF; assay: MazF endoribonuclease activators, SAR follow-up, biochemical, fluorescence, single-stranded RNA substrate (AID 588603); assay type: functional
[4] = target: T3, Neuropeptide Y receptor type 2 (Homo sapiens, UniProt P49146); assay: Fluorescence-based counterscreen for agonists of NPY-Y1: cell-based high-throughput dose response assay for agonists of NPY-Y2.; assay type: functional
T3 sequence (P49146 whole entry): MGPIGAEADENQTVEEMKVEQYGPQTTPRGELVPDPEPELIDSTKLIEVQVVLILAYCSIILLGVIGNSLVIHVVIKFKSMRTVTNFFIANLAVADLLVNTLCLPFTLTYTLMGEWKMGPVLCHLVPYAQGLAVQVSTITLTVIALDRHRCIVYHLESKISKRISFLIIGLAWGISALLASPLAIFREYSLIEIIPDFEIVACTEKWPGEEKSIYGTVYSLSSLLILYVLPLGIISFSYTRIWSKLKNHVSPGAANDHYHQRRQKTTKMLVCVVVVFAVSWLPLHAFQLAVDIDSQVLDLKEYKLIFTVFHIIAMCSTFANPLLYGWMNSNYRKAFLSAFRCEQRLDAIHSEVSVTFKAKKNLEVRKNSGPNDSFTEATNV

[5] = target: T2, Endoribonuclease toxin MazF; assay: MazF toxin RNase activators, dose response, biochemical, fluorescence, single-stranded RNA substrate, uHTS hits (AID 588481); assay type: functional
[6] = target: T2, Endoribonuclease toxin MazF; assay: fluorescent RNA oligo signal without MazF, dose response, counter-screen for MazEF activator project, biochemical, fluorescence, single-stranded RNase substrate (AID 588502); assay type: functional
[7] = system: HEK293; assay: Fluorescence-based counterscreen for potentiators or agonists of NPY-Y1: cell-based high-throughput dose response assay for inhibitors of cyclic nucleotide gated ion channel (CNGC) activity. In this assay, the parental HEK293 cell line transfected with a cyclic-nucleotide gated ion channel (CNGC)-based cAMP sensor is used to measure inhibition of isoproterenol-induced CNGC …; assay type: functional; conditions: Homo sapiens
[8] = system: MEF; assay: SAR analysis of small molecule cytotoxicity of MazEF TA System activators in embryonic fibroblast (MEF) cells. [Related pubchem assays (depositor defined):AID504720, AID504743]; assay type: functional; conditions: Mus musculus
[9] = target: DNA topoisomerase (Yersinia pestis, UniProt A0A2S9PM60); assay: Y. pestis Topo-I inhibitors, cleavage product readout, dose response, biochemical, cherry-pick (AID 588525)
Sequence of DNA topoisomerase (A0A2S9PM60 whole entry): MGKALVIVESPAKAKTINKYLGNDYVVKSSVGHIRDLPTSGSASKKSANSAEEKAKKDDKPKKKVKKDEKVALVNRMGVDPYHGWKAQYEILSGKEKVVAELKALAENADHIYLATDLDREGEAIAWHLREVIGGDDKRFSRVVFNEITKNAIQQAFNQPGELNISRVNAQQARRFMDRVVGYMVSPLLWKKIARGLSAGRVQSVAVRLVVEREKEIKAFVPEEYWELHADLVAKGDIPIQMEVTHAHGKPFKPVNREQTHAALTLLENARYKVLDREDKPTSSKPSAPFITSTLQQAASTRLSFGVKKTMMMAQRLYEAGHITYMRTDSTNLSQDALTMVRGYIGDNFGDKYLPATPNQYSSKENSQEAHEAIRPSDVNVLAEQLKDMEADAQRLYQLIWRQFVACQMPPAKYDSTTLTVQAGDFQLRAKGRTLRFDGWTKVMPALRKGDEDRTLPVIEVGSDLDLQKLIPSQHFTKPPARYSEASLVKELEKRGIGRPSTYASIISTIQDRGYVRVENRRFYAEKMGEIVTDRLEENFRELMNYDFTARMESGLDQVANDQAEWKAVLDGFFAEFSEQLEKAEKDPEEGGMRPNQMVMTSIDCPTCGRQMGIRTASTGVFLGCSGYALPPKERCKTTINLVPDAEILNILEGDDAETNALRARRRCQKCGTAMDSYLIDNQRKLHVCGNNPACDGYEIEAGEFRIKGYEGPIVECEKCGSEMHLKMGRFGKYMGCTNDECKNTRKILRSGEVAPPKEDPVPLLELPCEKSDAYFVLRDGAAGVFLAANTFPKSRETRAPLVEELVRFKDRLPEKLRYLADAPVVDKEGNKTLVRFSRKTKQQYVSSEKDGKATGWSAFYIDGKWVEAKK

[10] = HeLa cell cytotoxicity, dose response, cytotoxicity control for MgcRacGAP inhibitor project (AID 624300); assay type: functional
[11] = target: T4, Histone-lysine N-methyltransferase NSD2 (Homo sapiens, UniProt O96028); assay type: biochemical
T4 sequence (O96028 whole entry): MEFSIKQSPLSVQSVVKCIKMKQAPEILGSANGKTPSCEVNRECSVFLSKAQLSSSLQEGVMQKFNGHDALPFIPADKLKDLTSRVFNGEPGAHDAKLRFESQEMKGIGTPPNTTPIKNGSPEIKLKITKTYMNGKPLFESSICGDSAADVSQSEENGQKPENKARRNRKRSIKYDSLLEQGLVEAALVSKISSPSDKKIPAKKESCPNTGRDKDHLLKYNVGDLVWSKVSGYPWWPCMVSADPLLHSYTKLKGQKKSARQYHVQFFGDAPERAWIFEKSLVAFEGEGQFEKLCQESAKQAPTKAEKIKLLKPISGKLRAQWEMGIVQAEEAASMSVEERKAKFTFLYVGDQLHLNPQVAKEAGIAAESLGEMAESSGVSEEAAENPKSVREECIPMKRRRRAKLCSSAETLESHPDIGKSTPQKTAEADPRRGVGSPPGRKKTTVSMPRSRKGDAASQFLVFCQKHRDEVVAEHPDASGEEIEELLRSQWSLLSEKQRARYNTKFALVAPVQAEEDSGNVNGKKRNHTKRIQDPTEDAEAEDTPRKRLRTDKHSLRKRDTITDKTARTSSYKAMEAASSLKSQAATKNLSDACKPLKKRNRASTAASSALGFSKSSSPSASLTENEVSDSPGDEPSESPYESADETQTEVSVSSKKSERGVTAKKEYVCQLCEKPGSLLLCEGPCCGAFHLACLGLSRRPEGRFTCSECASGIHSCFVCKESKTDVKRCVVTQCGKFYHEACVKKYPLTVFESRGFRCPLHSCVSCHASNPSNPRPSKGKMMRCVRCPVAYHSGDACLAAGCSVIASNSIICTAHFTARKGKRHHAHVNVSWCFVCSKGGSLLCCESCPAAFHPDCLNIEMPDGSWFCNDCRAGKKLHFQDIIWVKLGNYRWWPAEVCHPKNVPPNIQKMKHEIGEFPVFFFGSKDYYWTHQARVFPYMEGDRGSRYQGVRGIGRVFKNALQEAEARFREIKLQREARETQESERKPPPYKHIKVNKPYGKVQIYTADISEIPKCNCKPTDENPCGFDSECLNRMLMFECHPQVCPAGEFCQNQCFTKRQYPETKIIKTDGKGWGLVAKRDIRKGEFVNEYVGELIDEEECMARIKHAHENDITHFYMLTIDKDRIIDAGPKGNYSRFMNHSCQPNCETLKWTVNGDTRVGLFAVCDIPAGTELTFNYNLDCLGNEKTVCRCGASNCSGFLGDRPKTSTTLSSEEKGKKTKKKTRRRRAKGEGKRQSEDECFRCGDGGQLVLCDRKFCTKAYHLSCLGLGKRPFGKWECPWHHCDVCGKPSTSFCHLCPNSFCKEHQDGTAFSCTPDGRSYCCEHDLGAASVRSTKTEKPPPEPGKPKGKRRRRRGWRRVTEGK

[12] = target: T5, Rac GTPase-activating protein 1 (Homo sapiens, UniProt Q9H0H5); assay: MgcRacGAP GTPase-activating activity inhibitors, confirmation, biochemical, ADP Hunter fluorescence, primary and confirmatory (AID 624330); assay type: functional
T5 sequence (Q9H0H5 whole entry): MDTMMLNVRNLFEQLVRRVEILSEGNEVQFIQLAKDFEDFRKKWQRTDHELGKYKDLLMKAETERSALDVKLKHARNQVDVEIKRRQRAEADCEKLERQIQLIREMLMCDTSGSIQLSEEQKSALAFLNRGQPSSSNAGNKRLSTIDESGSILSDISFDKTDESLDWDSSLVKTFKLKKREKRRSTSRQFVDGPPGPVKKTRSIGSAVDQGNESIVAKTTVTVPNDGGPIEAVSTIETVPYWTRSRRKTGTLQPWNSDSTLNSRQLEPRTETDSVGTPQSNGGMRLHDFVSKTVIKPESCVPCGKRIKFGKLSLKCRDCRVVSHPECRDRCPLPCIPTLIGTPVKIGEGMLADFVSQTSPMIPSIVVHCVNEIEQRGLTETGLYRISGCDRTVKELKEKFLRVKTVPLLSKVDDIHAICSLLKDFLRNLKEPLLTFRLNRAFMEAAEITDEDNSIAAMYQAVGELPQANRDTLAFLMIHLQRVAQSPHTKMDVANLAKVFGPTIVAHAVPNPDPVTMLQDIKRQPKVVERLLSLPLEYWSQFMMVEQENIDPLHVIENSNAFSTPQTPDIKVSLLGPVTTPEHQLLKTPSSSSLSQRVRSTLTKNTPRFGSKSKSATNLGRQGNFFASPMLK

[13] = target: Nonstructural protein 1 (Influenza A virus, UniProt Q194T2); assay type: functional, Influenza A virus (A/California/07/2009(H1N1))
Sequence of Nonstructural protein 1 (Q194T2 whole entry): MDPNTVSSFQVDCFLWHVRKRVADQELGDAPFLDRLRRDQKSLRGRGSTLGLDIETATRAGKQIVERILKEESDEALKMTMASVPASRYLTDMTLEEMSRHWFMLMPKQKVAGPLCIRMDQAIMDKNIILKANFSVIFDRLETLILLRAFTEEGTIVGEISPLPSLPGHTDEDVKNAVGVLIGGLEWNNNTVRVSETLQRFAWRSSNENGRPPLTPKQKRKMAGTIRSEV

Row | SMILES | EC50 [1] | EC50 [2] | EC50 [3] | EC50 [4] | EC50 [5] | EC50 [6] | IC50 [7] | CC50 [8] | AC50 [9] | CC50 [10] | AC50 [11] | IC50 [12] | IC50 [13]
1 | O=C(Nc1ccc(Cl)cc1Cl)NC1CCN(S(=O)(=O)c2ccc(F)cc2)CC1 | 7.41 µM (active) | > 99 µM (inactive) | 26.9 µM (inactive) | 6.58 µM (active) | 7.09 µM (active) | > 99 µM (inactive) | 4.36 µM (active) | 11.8 µM (active) | – | – | – | – | –
2 | COc1cccc2c1C(=N)c1c(O)c3c(c(O)c1C2=O)C[C@@](O)(C(C)=O)C[C@@H]3O[C@H]1C[C@H](N)[C@H](O)[C@H](C)O1 | – | – | – | – | – | – | – | – | 4.44 µM (active) | 35.4 µM (active) | 11.5 µM (active) | 50.8 µM (active) | 11.2 µM (active)
